Laboratory results: patent US20240116985A1, “STAPLED PEPTIDES AND METHODS THEREOF” (priority 2020, published 2024)
Converted amounts (≈) assume the structure as drawn. Like-named read-outs stand apart in the source and are kept apart here.

What was measured:
[1] = target: T1, full-length beta-Catenin (Uniprot ID P35222) (Homo sapiens, UniProt P35222); experiment: Fluorescence polarization IC50 (beta-catenin / 5FAM-TCF4 10-53 competition); assay type: binding
T1 construct: 10 nM full-length beta-Catenin (Uniprot ID P35222)
T1 sequence (P35222 1-781): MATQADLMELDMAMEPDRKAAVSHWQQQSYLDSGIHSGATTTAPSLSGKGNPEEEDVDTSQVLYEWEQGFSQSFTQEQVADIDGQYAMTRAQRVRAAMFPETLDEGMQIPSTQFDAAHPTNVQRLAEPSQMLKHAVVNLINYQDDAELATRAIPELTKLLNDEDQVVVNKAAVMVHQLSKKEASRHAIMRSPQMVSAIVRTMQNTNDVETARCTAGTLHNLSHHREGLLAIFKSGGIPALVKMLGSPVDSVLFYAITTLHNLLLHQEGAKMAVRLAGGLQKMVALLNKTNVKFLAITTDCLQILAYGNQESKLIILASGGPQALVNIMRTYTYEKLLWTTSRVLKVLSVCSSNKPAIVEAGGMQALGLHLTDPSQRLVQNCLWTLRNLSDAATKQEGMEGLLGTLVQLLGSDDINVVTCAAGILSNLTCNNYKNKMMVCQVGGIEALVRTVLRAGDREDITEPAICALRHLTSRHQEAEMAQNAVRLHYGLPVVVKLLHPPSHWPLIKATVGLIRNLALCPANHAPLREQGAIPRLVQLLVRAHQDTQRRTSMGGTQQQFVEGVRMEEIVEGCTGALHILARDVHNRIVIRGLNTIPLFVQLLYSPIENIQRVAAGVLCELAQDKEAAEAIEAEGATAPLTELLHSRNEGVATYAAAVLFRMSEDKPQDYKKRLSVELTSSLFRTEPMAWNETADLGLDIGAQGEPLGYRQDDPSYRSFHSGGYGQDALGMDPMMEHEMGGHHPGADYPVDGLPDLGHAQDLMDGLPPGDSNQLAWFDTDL

CHI Log D procedure = assay type: physicochemical; details: for chromatographic logD: pH 7.4, CHI Log D; for CHI Log D: pH 7.4
Solubility in PBS = assay type: physicochemical
Method in brief: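 HPLC quantitation of peptide remaining in the PBS supernatant after ultracentrifugation, referenced to a 50 μM solution in DMSO.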

[2] = target: T2, beta-catenin/TCF4 engagement (Homo sapiens, UniProt P35222); experiment: Nano-BRET target engagement assay (B-cat-Halo & TCF4-Luc in HEK293 cells); assay type: cell-based
T2 construct: expressed in transfected cells; host or cells: HEK293
T2 sequence (P35222 1-781): T1 sequence (P35222 1-781)

[3] = fluorescence polarization, read-out: beta-Catenin FP IC50
[4] = absolute IC50, read-out: NanoBRET Abs IC50

IC50 ([1]; read-out: beta-Catenin FP IC50) [nM] | chromatographic logD (CHI Log D procedure) | Solubility (Solubility in PBS; Solubility (uM)) [µM] | IC50 ([2]; read-out: NanoBRET Abs IC50) [nM] | IC50 [1, 3] [nM] | IC50 ([1]; read-out: FP EC50) [nM] | CHI Log D (CHI Log D procedure) | Solubility (Solubility in PBS) [µM] | IC50 [2, 4] [nM] | inhibition at 10 µM ([2]; HEK293, @ 10 uM, read-out: NanoBRET % inh @ 10 uM) [%] | IC50 ([2]; read-out: NanoBRET IC50) [nM] | SMILES
18 | 2.18 | 47 (≈ 91.2 µg/mL) | 5400 | – | – | – | – | – | – | – | COc1cccc(C[C@@H]2NC(=O)[C@H](C)NC(=O)[C@H](C)NC(=O)[C@H](CC(=O)O)NC(=O)[C@H](CC(=O)O)NC(=O)C3(CCCC=CCCCOC(=O)N4CC[C@@](C(=O)N[C@@H](Cc5ccccc5)C(=O)N[C@@H](Cc5csc6ccccc56)C(=O)N[C@@H](CCC(N)=O)C(N)=O)(C4)NC(=O)[C@H](CC(C)C)NC2=O)CCCC=CC[C@]2(CCCN2C(C)=O)C(=O)N[C@@H](CC(=O)O)C(=O)N[C@@H](CC(C)(C)C)C(=O)N3)c1 (stereo partly drawn) [I-1127, Ac-PL3-Asp-Npg-B5-Asp-Asp-Ala-Ala-3OMeF-Leu-PyrS2-Phe-BztA-Gln-NH2]
– | 2 | 40 (≈ 76.5 µg/mL) | – | 5 | – | – | – | – | 17 | – | CC(=O)N1CCC[C@]12CC=CCCCC1(CCCC=CCCCOC(=O)N3CC[C@@](C(=O)N[C@@H](Cc4ccsc4)C(=O)N[C@@H](Cc4csc5ccccc45)C(=O)N[C@@H](Cc4c[nH]cn4)C(N)=O)(C3)NC(=O)[C@H](CC(N)=O)NC(=O)[C@H](Cc3ccccc3)NC(=O)[C@H](C)NC(=O)[C@H](C)NC(=O)[C@H](CC(=O)O)NC(=O)[C@H](CC(=O)O)NC1=O)NC(=O)[C@H](CC(C)C)NC(=O)[C@H](CC(=O)O)NC2=O (stereo partly drawn) [I-696, Ac-PL3-Asp-Leu-B5-Asp-Asp-Ala-Ala-Phe-Asn-PyrS2-3Thi-BztA-His-NH2]
12 | 2.22 | 47 (≈ 91.2 µg/mL) | – | – | – | – | – | > 20000 | – | – | COc1cccc(C[C@@H]2NC(=O)[C@H](C)NC(=O)[C@H](C)NC(=O)[C@H](CC(=O)O)NC(=O)[C@H](CC(=O)O)NC(=O)C3(CCCC=CCCCOC(=O)N4CC[C@@](C(=O)N[C@@H](Cc5ccccc5)C(=O)N[C@@H](Cc5csc6ccccc56)C(=O)N[C@@H](CCC(N)=O)C(N)=O)(C4)NC(=O)[C@H](CO)NC2=O)CCCC=CC[C@]2(CCCN2C(C)=O)C(=O)N[C@@H](CC(=O)O)C(=O)N[C@@H](CC2CCCCC2)C(=O)N3)c1 (stereo partly drawn) [I-1124, Ac-PL3-Asp-Cha-B5-Asp-Asp-Ala-Ala-3OMeF-Ser-PyrS2-Phe-BztA-Gln-NH2]
15 | 2.43 | 44 (≈ 83.3 µg/mL) | 10400 | – | – | – | – | – | – | – | CC(=O)N1CCC[C@]12CC=CCCCC1(CCCC=CCCCOC(=O)N3CC[C@@](C(=O)N[C@@H](Cc4ccccc4Cl)C(=O)N[C@@H](Cc4csc5ccccc45)C(=O)N[C@@H](C(N)=O)[C@H](C)O)(C3)NC(=O)[C@H](CO)NC(=O)[C@H](Cc3ccccc3)NC(=O)[C@H](C)NC(=O)[C@H](C)NC(=O)[C@H](CC(=O)O)NC(=O)[C@H](CC(=O)O)NC1=O)NC(=O)[C@H](CC(C)(C)C)NC(=O)[C@H](CC(=O)O)NC2=O (stereo partly drawn) [I-1032, Ac-PL3-Asp-Npg-B5-Asp-Asp-Ala-Ala-Phe-Ser-PyrS2-2C1F-BztA-dThr-NH2]

Second part, the compound before the results:

SMILES | IC50 ([1]; read-out: beta-Catenin FP IC50) [nM] | chromatographic logD (CHI Log D procedure) | Solubility (Solubility in PBS; Solubility (uM)) [µM] | IC50 ([2]; read-out: NanoBRET Abs IC50) [nM] | IC50 [1, 3] [nM] | IC50 ([1]; read-out: FP EC50) [nM] | CHI Log D (CHI Log D procedure) | Solubility (Solubility in PBS) [µM] | IC50 [2, 4] [nM] | inhibition at 10 µM ([2]; HEK293, @ 10 uM, read-out: NanoBRET % inh @ 10 uM) [%] | IC50 ([2]; read-out: NanoBRET IC50) [nM]
CC(=O)N1CCC[C@]12CC=CCCCC1(CCCC=CCCCOC(=O)N3CC[C@@](C(=O)N[C@@H](Cc4ccsc4)C(=O)N[C@@H](Cc4csc5ccccc45)C(=O)N[C@@H](CCC(N)=O)C(=O)N[C@@H](CCCCNC(=O)C4CCN(C5CCN(C)CC5)CC4)C(N)=O)(C3)NC(=O)[C@H](CC(N)=O)NC(=O)[C@H](Cc3ccccc3)NC(=O)[C@H](C)NC(=O)[C@H](C)NC(=O)[C@H](CC(=O)O)NC(=O)[C@H](CC(=O)O)NC1=O)NC(=O)[C@H](CC(C)(C)C)NC(=O)[C@H](CC(=O)O)NC2=O (stereo partly drawn) [I-907, Ac-PL3-Asp-Npg-B5-Asp-Asp-Ala-Ala-Phe-Asn-PyrS2-3Thi-BztA-Gln-[MeBipipAc]Lys-NH2] | 9 | 1.8 | 20 (≈ 45.1 µg/mL) | 27800 | – | – | – | – | – | – | –
CC(=O)N1CCC[C@]12CC=CCCCC1(CCCC=CCCCOC(=O)N3CC[C@@](C(=O)N[C@@H](Cc4ccccc4F)C(=O)N[C@@H](Cc4csc5ccccc45)C(=O)N[C@@H](CO)C(N)=O)(C3)NC(=O)[C@H]([C@@H](C)O)NC(=O)[C@H](Cc3ccccc3)NC(=O)[C@H](C)NC(=O)[C@H](C)NC(=O)[C@H](CC(=O)O)NC(=O)[C@H](CC(=O)O)NC1=O)NC(=O)[C@H](CC(C)(C)C)NC(=O)[C@H](CC(=O)O)NC2=O (stereo partly drawn) [I-1023, Ac-PL3-Asp-Npg-B5-Asp-Asp-Ala-Ala-Phe-Thr-PyrS2-2FF-BztA-Ser-NH2] | 10 | 2.17 | 46 (≈ 86.3 µg/mL) | 15000 | – | – | – | – | – | – | –
CC(=O)N1CCC[C@]12CC=CCCCC1(CCCC=CCCCCCC[C@@](C)(C(=O)N[C@@H](Cc3ccsc3)C(=O)N[C@@H](Cc3csc4ccccc34)C(=O)N[C@@H](CCC(N)=O)C(N)=O)NC(=O)[C@H](CC(N)=O)NC(=O)[C@H](Cc3ccccc3)NC(=O)[C@H](C)NC(=O)[C@H](C)NC(=O)[C@H](CC(=O)O)NC(=O)[C@H](CC(=O)O)NC1=O)NC(=O)[C@H](CC(C)C)NC(=O)[C@H](CC(=O)O)NC2=O (stereo partly drawn) [I-681, Ac-PL3-Asp-Leu-B5-Asp-Asp-Ala-Ala-Phe-Asn-S8-3Thi-BztA-Gln-NH2] | – | – | – | – | 12 | 12 | 2.273 | 48 (≈ 89.3 µg/mL) | 25100 | – | –
CCCC(=O)NCCCC[C@H](NC(=O)[C@H](CCC(N)=O)NC(=O)[C@H](Cc1csc2ccccc12)NC(=O)[C@H](Cc1ccsc1)NC(=O)[C@]12CCN(C1)C(=O)OCCCC=CCCCC1(CCCC=CC[C@]3(CCCN3C(C)=O)C(=O)N[C@@H](CC(=O)O)C(=O)N[C@@H](CC(C)(C)C)C(=O)N1)C(=O)N[C@@H](CC(=O)O)C(=O)N[C@@H](CC(=O)O)C(=O)N[C@@H](C)C(=O)N[C@@H](C)C(=O)N[C@@H](Cc1ccccc1)C(=O)N[C@@H](CC(N)=O)C(=O)N2)C(N)=O (stereo partly drawn) [I-917, Ac-PL3-Asp-Npg-B5-Asp-Asp-Ala-Ala-Phe-Asn-PyrS2-3Thi-BztA-Gln-[Bua]Lys-NH2] | 12 | 2.15 | 44 (≈ 93.1 µg/mL) | 19700 | – | – | – | – | – | – | –
CC(=O)N1CCC[C@]12CC=CCCCC1(CCCC=CCCCCCC[C@@](C)(C(=O)N[C@@H](Cc3ccccc3)C(=O)N[C@@H](Cc3csc4ccccc34)C(=O)N[C@@H](CCC(N)=O)C(N)=O)NC(=O)[C@H](CCC(N)=O)NC(=O)[C@H](Cc3ccccc3)NC(=O)[C@H](C)NC(=O)[C@H](C)NC(=O)[C@H](CCC(=O)O)NC(=O)[C@H](CC(=O)O)NC1=O)NC(=O)[C@H](CC(C)(C)C)NC(=O)[C@H](CC(=O)O)NC2=O (stereo partly drawn) [I-544, Ac-PL3-Asp-Npg-B5-Asp-Glu-Ala-Ala-Phe-Gln-S8-Phe-BztA-Gln-NH2] | – | 2.48 | 48 (≈ 91.1 µg/mL) | – | 24 | – | – | – | 4600 | – | –
CC(=O)N1CCC[C@]12CC=CCCCC1(CCCC=CCCCOC(=O)N3CC[C@@](C(=O)N[C@@H](Cc4ccsc4)C(=O)N[C@@H](Cc4csc5ccccc45)C(N)=O)(C3)NC(=O)[C@H](CC(N)=O)NC(=O)[C@H](Cc3ccccc3)NC(=O)[C@H](C)NC(=O)[C@H](C)NC(=O)[C@H](CC(N)=O)NC(=O)[C@H](CC(=O)O)NC1=O)NC(=O)[C@H](CC(C)(C)C)NC(=O)[C@H](CC(=O)O)NC2=O (stereo partly drawn) [I-857, Ac-PL3-Asp-Npg-B5-Asp-Asn-Ala-Ala-Phe-Asn-PyrS2-3Thi-BztA-NH2] | 15 | 2.58 | – | 30600 | – | – | – | 10 (≈ 17.9 µg/mL) | – | – | 50600
CC(=O)N1CCC[C@]12CC=CCCCC1(CCCC=CCCCCCC[C@@](C)(C(=O)N[C@@H](Cc3ccccc3)C(=O)N[C@@H](Cc3csc4ccccc34)C(=O)N[C@@H](CCC(N)=O)C(N)=O)NC(=O)[C@H](CC(N)=O)NC(=O)[C@H](Cc3ccccc3)NC(=O)[C@H](C)NC(=O)[C@H](C)NC(=O)[C@H](CC(=O)O)NC(=O)[C@H](CC(=O)O)NC1=O)NC(=O)[C@H](CC(C)C)NC(=O)[C@H](CC(=O)O)NC2=O (stereo partly drawn) [I-563, Ac-PL3-Asp-Leu-B5-Asp-Asp-Ala-Ala-Phe-Asn-S8-Phe-BztA-Gln-NH2] | – | – | – | – | 19 | 19 | 2.317 | 50 (≈ 92.8 µg/mL) | 15700 | – | –
CC(=O)N1CCC[C@]12CC=CCCCC1(CCCC=CCCCOC(=O)N3CC[C@@](C(=O)N[C@@H](Cc4ccccc4Cl)C(=O)N[C@@H](Cc4csc5ccccc45)C(=O)N[C@@H](CCC(N)=O)C(=O)NCCCCCCN)(C3)NC(=O)[C@H]([C@@H](C)O)NC(=O)[C@H](Cc3ccccc3)NC(=O)[C@H](C)NC(=O)[C@H](C)NC(=O)[C@H](CN(CC(=O)O)CC(F)(F)F)NC(=O)[C@H](CC(=O)O)NC1=O)NC(=O)[C@H](CC(C)(C)C)NC(=O)[C@H](CC(=O)O)NC2=O (stereo partly drawn) [I-1061, Ac-PL3-Asp-Npg-B5-Asp-TfeGA-Ala-Ala-Phe-Thr-PyrS2-2C1F-BztA-Gln-6AmHex] | 6 | 2.56 | – | – | – | – | – | 10 (≈ 21.4 µg/mL) | 10300 | – | –
